Data as given in patent publication US20080200454A1, “CARBON-LINKED TETRAHYDRO-PYRAZOLO-PYRIDINE MODULATORS OF CATHEPSIN S” (priority 2007, published 2008).

These compounds were tested against Recombinant human cathepsin S (CatS) (Homo sapiens, UniProt P25774) (assay: Recombinant human cathepsin S (CatS) inhibition assay, fluorogenic substrate Z-Valine-Valine-Arginine-AMC). Conditions: not given.
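Further: Baculovirus-expressed CatS in pH 5.0 sodium acetate buffer with DTT and NaCl, fluorescence read each minute over 20 min, inhibition derived from rate slope.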

Recombinant human cathepsin S (CatS), sequence (P25774 115-331): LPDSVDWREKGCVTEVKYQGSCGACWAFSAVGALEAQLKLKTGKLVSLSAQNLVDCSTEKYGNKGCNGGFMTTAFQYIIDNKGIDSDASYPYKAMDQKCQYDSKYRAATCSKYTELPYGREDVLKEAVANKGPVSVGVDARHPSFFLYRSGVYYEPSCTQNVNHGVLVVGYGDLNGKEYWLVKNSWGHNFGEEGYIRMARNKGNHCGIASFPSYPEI

| Structure (SMILES) | IC50 [nM] |
| --- | --- |
| CN(C)S(=O)(=O)N1CCc2c(c(-c3ccc(Cl)c(C#Cc4ccc(CNCc5ccc(Cl)cc5)cc4)c3)nn2CCCN2CCOCC2)C1 [Example 153, 3-(4-Chloro-3-{[4-({[(4-chlorophenyl)methyl]amino}methyl)phenyl]ethynyl}phenyl)-N,N-dimethyl-1-(3-morpholin-4-ylpropyl)-1,4,6,7-tetrahydro-5H-pyrazolo[4,3-c]pyridine-5-sulfonamide] | 180 |
| C[C@H]1COCCN1CCCn1nc(-c2ccc(Cl)c(C#Cc3ccc(Cl)c(C(=O)NC[C@@H]4CCCN4)c3)c2)c2c1CCN(C(=O)C(N)=O)C2 [Example 556, 5-{[5-(5-[Amino(oxo)acetyl]-1-{3-[(3S)-3-methylmorpholin-4-yl]propyl}-4,5,6,7-tetrahydro-1H-pyrazolo[4,3-c]pyridin-3-yl)-2-chlorophenyl]ethynyl}-2-chloro-N-[(2S)-pyrrolidin-2-ylmethyl]benzamide] | 30 |
| COC(=O)C1c2ccc(C#Cc3cc(-c4nn(CCCN5CCOCC5)c5c4CN(S(C)(=O)=O)CC5)ccc3Cl)cc2CCN1C(=O)OC(C)(C)C (centres unmarked) [Example 207, 2-(1,1-Dimethylethyl) 1-methyl 6-({2-chloro-5-[5-(methylsulfonyl)-1-(3-morpholin-4-ylpropyl)-4,5,6,7-tetrahydro-1H-pyrazolo[4,3-c]pyridin-3-yl]phenyl}ethynyl)-3,4-dihydroisoquinoline-1,2(1H)-dicarboxylate] | 2860 |
| CS(=O)(=O)N1CCc2c(c(-c3ccc(Cl)c(C#Cc4cccc(CC(=O)O)c4)c3)nn2CCCN2CCOCC2)C1 [Example 16, (3-{2-Chloro-5-[5-methanesulfonyl-1-(3-morpholin-4-yl-propyl)-4,5,6,7-tetrahydro-1H-pyrazolo[4,3-c]pyridin-3-yl]-phenylethynyl}-phenyl)-acetic acid] | 1150 |
| NC(=O)N1CCc2c(c(-c3ccc(Cl)c(C#Cc4ccc(Cl)cc4)c3)nn2C[C@@H](O)CN2CCC(C3CCNCC3)CC2)C1 [Example 238, 1-[(2S)-3-(4,4′-Bipiperidin-1-yl)-2-hydroxypropyl]-3-{4-chloro-3-[(4-chlorophenyl)ethynyl]phenyl}-1,4,6,7-tetrahydro-5H-pyrazolo[4,3-c]pyridine-5-carboxamide] | 3 |
| CS(=O)(=O)N1CCc2c(c(-c3ccc(Cl)c(C#Cc4cccc(CO)c4)c3)nn2CCCN2CCOCC2)C1 [Example 6, (3-{2-Chloro-5-[5-methanesulfonyl-1-(3-morpholin-4-yl-propyl)-4,5,6,7-tetrahydro-1H-pyrazolo[4,3-c]pyridin-3-yl]-phenylethynyl}-phenyl)-methanol] | 950 |
| NC(=O)N1CCc2c(c(-c3ccc(Cl)c(C#Cc4ccc(Cl)c(C(=O)NCC5CNCCO5)c4)c3)nn2CCCN2CCSCC2)C1 (centres unmarked) [Example 584, 3-[4-Chloro-3-({4-chloro-3-[(morpholin-2-ylmethyl)carbamoyl]phenyl}ethynyl)phenyl]-1-(3-thiomorpholin-4-ylpropyl)-1,4,6,7-tetrahydro-5H-pyrazolo[4,3-c]pyridine-5-carboxamide] | 40 |
| Cc1ccc(S(=O)(=O)NCCCc2cc(-c3nn(CCCN4CCOCC4)c4c3CN(S(C)(=O)=O)CC4)ccc2Cl)cc1 [Example 84, N-(3-{2-Chloro-5-[5-methanesulfonyl-1-(3-morpholin-4-yl-propyl)-4,5,6,7-tetrahydro-1H-pyrazolo[4,3-c]pyridin-3-yl]-phenyl}-propyl)-4-methyl-benzenesulfonamide] | 8100 |
| NC(=O)C(=O)N1CCc2c(c(-c3ccc(Cl)c(C#Cc4ccc(Cl)c(C(=O)NCCN5CCOCC5)c4)c3)nn2CCCN2CCSCC2)C1 [Example 581, 5-[(5-{5-[Amino(oxo)acetyl]-1-(3-thiomorpholin-4-ylpropyl)-4,5,6,7-tetrahydro-1H-pyrazolo[4,3-c]pyridin-3-yl}-2-chlorophenyl)ethynyl]-2-chloro-N-(2-morpholin-4-ylethyl)benzamide] | 30 |
| Cc1ccccc1CCc1cc(-c2nn(CCCN3CCOCC3)c3c2CN(S(C)(=O)=O)CC3)ccc1Cl [Example 60, 3-[4-Chloro-3-(2-o-tolyl-ethyl)-phenyl]-5-methanesulfonyl-1-(3-morpholin-4-yl-propyl)-4,5,6,7-tetrahydro-1H-pyrazolo[4,3-c]pyridine] | 880 |
| CS(=O)(=O)N1CCc2c(c(-c3ccc(Cl)c(C#Cc4ccc(CN[C@@H](CO)c5ccccc5)cc4)c3)nn2CCCN2CCC(N3CCCC3=O)CC2)C1 [Example 352, 1-(1-{3-[3-(4-Chloro-3-{[4-({[(1R)-2-hydroxy-1-phenylethyl]amino}methyl)phenyl]ethynyl}phenyl)-5-(methylsulfonyl)-4,5,6,7-tetrahydro-1H-pyrazolo[4,3-c]pyridin-1-yl]propyl}piperidin-4-yl)pyrrolidin-2-one] | 20 |
| CS(=O)(=O)N1CCc2c(c(-c3ccc(Cl)c(CCCCCO)c3)nn2CCCN2CCOCC2)C1 [Example 301, 5-{2-Chloro-5-[5-(methylsulfonyl)-1-(3-morpholin-4-ylpropyl)-4,5,6,7-tetrahydro-1H-pyrazolo[4,3-c]pyridin-3-yl]phenyl}pentan-1-ol] | 7050 |
| CS(=O)(=O)c1ccccc1S(=O)(=O)NCCCc1cc(-c2nn(CCCN3CCC(N4CCCC4=O)CC3)c3c2CN(S(C)(=O)=O)CC3)ccc1Cl [Example 100, N-{3-[2-Chloro-5-(5-methanesulfonyl-1-{3-[4-(2-oxo-pyrrolidin-1-yl)-piperidin-1-yl]-propyl}-4,5,6,7-tetrahydro-1H-pyrazolo[4,3-c]pyridin-3-yl)-phenyl]-propyl}-2-methanesulfonyl-benzenesulfonamide] | 2500 |

Same assay, conditions: CatS IC50

| Structure (SMILES) | IC50 [nM] |
| --- | --- |
| CC(C)NCc1cc(C#Cc2cc(-c3nn(CCCN4CCOC[C@@H]4C)c4c3CN(C(=O)C(N)=O)CC4)ccc2Cl)ccc1Cl [Example 619, 2-(3-{4-Chloro-3-[(4-chloro-3-{[(1-methylethyl)amino]methyl}phenyl)ethynyl]phenyl}-1-{3-[(3S)-3-methylmorpholin-4-yl]propyl}-1,4,6,7-tetrahydro-5H-pyrazolo[4,3-c]pyridin-5-yl)-2-oxoacetamide] | 20 |
| CC(=O)N1CCN(CCCn2nc(-c3ccc(Cl)c(C#Cc4ccc(CNCc5ccc(Cl)cc5)cc4)c3)c3c2CCN(S(C)(=O)=O)C3)CC1 [Example 353, 1-{4-[(5-{1-[3-(4-Acetylpiperazin-1-yl)propyl]-5-(methylsulfonyl)-4,5,6,7-tetrahydro-1H-pyrazolo[4,3-c]pyridin-3-yl}-2-chlorophenyl)ethynyl]phenyl}-N-[(4-chlorophenyl)methyl]methanamine] | 150 |
| CS(=O)(=O)N1CCc2c(c(-c3ccc(Cl)c(C#Cc4ccc(CNCc5ccc(Cl)cc5)cc4)c3)nn2CCCN2CCC(C(=O)O)CC2)C1 [Example 336, 1-{3-[3-(4-Chloro-3-{[4-({[(4-chlorophenyl)methyl]amino}methyl)phenyl]ethynyl}phenyl)-5-(methylsulfonyl)-4,5,6,7-tetrahydro-1H-pyrazolo[4,3-c]pyridin-1-yl]propyl}piperidine-4-carboxylic acid] | 150 |
| C[C@H]1COCCN1CCCn1nc(-c2ccc(Cl)c(C#Cc3ccc(F)c(CNCc4ccccc4)c3)c2)c2c1CCN(S(C)(=O)=O)C2 [Example 539, 1-[5-({2-Chloro-5-[1-{3-[(3S)-3-methylmorpholin-4-yl]propyl}-5-(methylsulfonyl)-4,5,6,7-tetrahydro-1H-pyrazolo[4,3-c]pyridin-3-yl]phenyl}ethynyl)-2-fluorophenyl]-N-(phenylmethyl)methanamine] | 210 |
| CS(=O)(=O)N1CCc2c(c(-c3ccc(Cl)c(C#Cc4ccc(CNCCO)cc4)c3)nn2CCCN2CCOCC2)C1 [Example 469, 2-({[4-({2-Chloro-5-[5-(methylsulfonyl)-1-(3-morpholin-4-ylpropyl)-4,5,6,7-tetrahydro-1H-pyrazolo[4,3-c]pyridin-3-yl]phenyl}ethynyl)phenyl]methyl}amino)ethanol] | 530 |
| NC(=O)N1CCc2c(c(-c3ccc(Cl)c(C#Cc4ccc(C(=O)N5CCCC5)cc4)c3)nn2CCCN2CCSCC2)C1 [Example 164, 3-(4-Chloro-3-{[4-(pyrrolidin-1-ylcarbonyl)phenyl]ethynyl}phenyl)-1-(3-thiomorpholin-4-ylpropyl)-1,4,6,7-tetrahydro-5H-pyrazolo[4,3-c]pyridine-5-carboxamide] | 730 |
| NC(=O)C(=O)N1CCc2c(c(-c3ccc(Cl)c(C#Cc4ccc(Cl)c(C(=O)NCCN5CCOCC5)c4)c3)nn2CCCN2CCCCC2)C1 [Example 591, 5-[(5-{5-[Amino(oxo)acetyl]-1-(3-piperidin-1-ylpropyl)-4,5,6,7-tetrahydro-1H-pyrazolo[4,3-c]pyridin-3-yl}-2-chlorophenyl)ethynyl]-2-chloro-N-(2-morpholin-4-ylethyl)benzamide] | 30 |
| CS(=O)(=O)N1CCc2c(c(-c3ccc(Cl)c(C#Cc4ccc(CNCc5ccc(Cl)cc5)cc4)c3)nn2CCCN2CCC(CO)CC2)C1 [Example 337, (1-{3-[3-(4-Chloro-3-{[4-({[(4-chlorophenyl)methyl]amino}methyl)phenyl]ethynyl}phenyl)-5-(methylsulfonyl)-4,5,6,7-tetrahydro-1H-pyrazolo[4,3-c]pyridin-1-yl]propyl}piperidin-4-yl)methanol] | 70 |
| CN(C)c1ccc(CNCc2ccc(C#Cc3cc(-c4nn(CCCN5CCSCC5)c5c4CN(C(N)=O)CC5)ccc3Cl)cc2)cc1 [Example 175, 3-[4-Chloro-3-({4-[({[4-(dimethylamino)phenyl]methyl}amino)methyl]phenyl}ethynyl)phenyl]-1-(3-thiomorpholin-4-ylpropyl)-1,4,6,7-tetrahydro-5H-pyrazolo[4,3-c]pyridine-5-carboxamide] | 190 |
| CC(C)CNCc1ccc(C#Cc2cc(-c3nn(CCCN4CCOCC4)c4c3CN(S(C)(=O)=O)CC4)ccc2Cl)cc1 [Example 318, N-{[4-({2-Chloro-5-[5-(methylsulfonyl)-1-(3-morpholin-4-ylpropyl)-4,5,6,7-tetrahydro-1H-pyrazolo[4,3-c]pyridin-3-yl]phenyl}ethynyl)phenyl]methyl}-2-methylpropan-1-amine] | 1150 |
